One experiment has as its target T1, TBK1 (Homo sapiens, UniProt Q9UHD2).
T1 sequence (Q9UHD2 1-729): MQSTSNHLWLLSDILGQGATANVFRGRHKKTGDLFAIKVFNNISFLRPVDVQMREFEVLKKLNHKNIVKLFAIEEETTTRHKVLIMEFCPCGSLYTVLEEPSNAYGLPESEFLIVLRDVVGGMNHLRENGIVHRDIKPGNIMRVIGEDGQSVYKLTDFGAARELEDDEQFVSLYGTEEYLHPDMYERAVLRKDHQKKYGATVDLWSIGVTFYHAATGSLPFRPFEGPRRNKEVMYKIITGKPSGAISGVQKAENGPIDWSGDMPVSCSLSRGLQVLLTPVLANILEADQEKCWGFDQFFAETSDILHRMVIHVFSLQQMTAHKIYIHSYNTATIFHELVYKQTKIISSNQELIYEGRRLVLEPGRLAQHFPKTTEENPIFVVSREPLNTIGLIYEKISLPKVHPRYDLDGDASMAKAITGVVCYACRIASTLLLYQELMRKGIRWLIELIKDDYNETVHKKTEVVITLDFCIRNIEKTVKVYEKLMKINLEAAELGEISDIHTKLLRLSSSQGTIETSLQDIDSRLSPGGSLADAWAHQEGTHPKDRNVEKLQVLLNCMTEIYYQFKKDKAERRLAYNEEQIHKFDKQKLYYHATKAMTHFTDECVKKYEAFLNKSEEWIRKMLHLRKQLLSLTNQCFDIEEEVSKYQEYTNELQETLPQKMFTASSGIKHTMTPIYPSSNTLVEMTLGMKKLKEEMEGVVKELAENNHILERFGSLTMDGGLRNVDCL
As to conditions: cited from earlier work.

A further experiment relates to γδ2 T cells. Nature of the experiment: CAR (B7H3) related lentivirus transduction of γδ2 T cells with small inhibitors: transduction rate. Particulars: 0.6 uM, day 10; control below 10%. Type of experiment: cell-based, human. The protocol:
VSV-G pseudotyped lentiviral vectors were applied in this method. 1×10^7 293T cells were plated into a poly-D-lysine coated 100 mm dish. Next day the cells were transfected with 6 μg of pCDH-EF1-MCS-T2A-copGFP plasmid (Addgene, Plasmid #72263) or pCDH-EF1-CAR-T2A-copGFP plasmid modified from pCDH-EF1-MCS-T2A-copGFP, 4 μg of pspAx2 (Addgene, Plasmid #12260), 2 μg of pCMV-VSV-G (Addgene, Plasmid #8454) using 30 ug PEI transfection regents. After 8 hours of transfection, the cell culture medium was changed. The supernatant were collected 48 hours and 72 hours later. Concentrated the virus with Lenti-X™ Concentrator (Takara) and monitored the virus titers by transduction of 293T cells and stored the concentrated virus in −80° C. until further use.
For lentivirus transduction, 1×10^CFU lentivirus diluted in 200 ul PBS were added in a 24-well plate which were pre-coated with RetroNectin reagent (Takara) and centrifugated by 2,000 g for 2 hours at 32° C. After centrifugation, removed the supernatant and washed the plate with PBS three times slightly.
For the virus transduction of γδ2 T cells, seeded 1×10^PBMCs which were in vitro cultured after 48 hours in the γδ2 T cell culture medium mentioned above (Gibco serum free medium with rhIL-2 and ZOL). Added or not small inhibitors and mixed well and concentrated the cells by 800 g for 10 mins at 32° C. The plates were incubated at 37° C., 5% CO2. Discarded the small inhibitors regent by changing the cell culture medium 24 hours later.
Calculate the cell number by an automated cell counter and the transduction rate (GFP positive rate) was analyzed by flow cytometry every 2 to 3 days. The transduction rate was monitored in the gate of γδ2 or γδ1 T cells.

What is called IC50 is the concentration that inhibits the measured activity by half. Regarding BX795, the IC50 at TBK1 is 6 nM. Moreover, in the experiment with γδ2 T cells, the transduction rate entry was “around 40%”.
